Patent publication US11028099B2, “NRF2 activators” (GLAXOSMITHKLINE INTELLECTUAL PROPERTY DEVELOPMENT LIMITED, priority 2016, dated 2021)

Experiments:
[1] = molecular target: T1, Kelch domain (321-609) of Keap1 / TAMRA-labeled NRF2 ETGE peptide (Homo sapiens, UniProt Q14145); assay: NRF2-Keap1 FP assay (Keap1 Kelch fluorescence polarization); assay type: binding; details: Keap1 (321-609) 20 nM, Tamra labelled peptide 8 nM
T1 construct: the Kelch domain (321-609) of Keap1 is used
Description: NRF2-Keap1 FP Assay One model for the NRF2-Keap1 interaction is through two binding sites in the Neh2 domain on NRF2. The two sites are referred to as the DLG binding motif (latch domain, uM affinity) and the ETGE binding motif (hinge domain, nM affinity). The Keap1 protein consists of an N-terminal region (NTR), a broad complex, tramtrack, and brick a brac domain (BTB), an intervening region (IVR), a double glycine repeat domain (DGR or Kelch), and a C-terminal region. The DLG and ETGE motifs of NRF2's Neh2 domain bind to the Kelch domain of Keap1 at different affinities. In the Keap1 Kelch fluorescence polarization (FP) assay, a TAMRA-labeled 16 mer peptide (AFFAQLQLDEETGEFL) containing the ETGE motif of NRF2 and the Kelch domain (321-609) of Keap1 is used. The assay determines if a compound interferes with the binding between Keap1 […] and the TAMRA-labeled peptide. Binding of TAMRA-labeled NRF2 peptide to Keap1 (321-609) results in a high FP signal. If a compound interferes with the binding between the peptide and the protein, it will cause the assay signal to decrease. Thus, assay signal is inversely proportional to binding inhibition. FP Assay:
100 nl of 100× compound dose response curves (serial 3-fold dilutions) in DMSO are stamped using an Echo liquid handling system (Labcyte) into 384-well low volume black assay plates (Greiner, #784076), with DMSO in columns 6 and 18. […] The plates are spun at 500 rpm for 1 min, incubated for 1 hr at room temperature, and read on an Analyst GT (Molecular Devices) equipped with excitation (530/25 nm) and emission (580/10 nm) filters designed for Tamra probes. […] Fluorescence measurements, represented as mP, are used in the transformation of the data. Compound activity is calculated based on percent inhibition, normalized against controls in the assay (Control 1 contains the Tamra peptide and Keap1 (321-609) together (0% response) and control 2 contains the Tamra peptide alone (100% response)). Data analysis is handled using the software package Abase XE (Surrey, United Kingdom. The % inhibition values are calculated by the equation: […]

[2] = molecular target: T2, full length Keap1 protein / full length NRF2 protein (Homo sapiens, UniProt Q14145); assay: NRF2-Keap1 TR-FRET assay; assay type: binding; details: full length Keap1-FlagHis and biotin-NRF2
T2 construct: full length NRF2 protein and full length Keap1 protein (Keap1 exists a dimer) are used
Description: In the NRF2-Keap1 TR-FRET (time-resolved fluorescence resonance energy transfer) assay, full length NRF2 protein and full length Keap1 protein (Keap1 exists a dimer) are used. The assay detects the ability of compound to displace the binding of FlagHis-tagged Keap1 with biotinylated, Avi-tagged NRF2 protein. Biotin-NRF2 binds to streptavidin-europium (a component of the detection mix) and Keap1-FlagHis is recognized by anti-Flag APC (allophycocyanin) antibody (also a component of the detection mix). If binding occurs between the two proteins, there will be an energy transfer from the Eu+3 (donor) at 615 nm to the APC (acceptor) at 665 nm. A potential Keap1 inhibitor will cause a reduction in the TR-FRET signal by interfering with the binding of Keap1 to NRF2.
One hundred nanoliters of 100× compound dose response curves (serial 3-fold dilutions) in DMSO are stamped using an Echo liquid handling system (Labcyte) into 384-well, low volume, black assay plates (Greiner, #784076), with DMSO in columns 6 and 18. The top concentration of compound is located in columns 1 and 13. All reagents are diluted in assay buffer (50 mM Tris, pH 8.0, 5 mM MgCl2, 100 mM NaCl, 0.005% BSA, 1 mM DTT, and 2 mM CHAPS). The BSA, DTT, and CHAPS are added to the assay buffer on the day of assay. […] Plates are spun at 500 rpm for 1 minute, incubated for 1 hour at RT, and read on an Envision plate reader using a 320 nm excitation filter and 615 nm and 665 nm emission filters. Compound response (% inhibition) and potency (pIC50) are calculated based on the ratio of the two emissions (665 nm/615 nm) and then the transformed data is normalized against controls in the assay (control 1=1% DMSO in the presence of NRF2 and Keap1 protein and control 2=1% DMSO in the absence of protein). […] The % inhibition values are calculated from the ratio (transformed) data by the equation: 100−(100*(compound response−average control 2)/(average control 1−average control2)). […]

Rat PK = assay type: in vivo; details: oral bioavailability
[3] = system: NQO1 specific activity induction (marker for NRF2 activation) in BEAS-2B cells; assay: BEAS-2B NQO1 MTT assay; assay type: cell-based; details: Homo sapiens, 48 hours with compound
Description: NAD(P)H:quinone oxidoreductase 1 (NQO1), also called DT diaphorase, is a homodimeric FAD-containing enzyme that catalyzes obligatory NAD(P)H-dependent two-electron reductions of quinones and protects cells against the toxic and neoplastic effects of free radicals and reactive oxygen species arising from one-electron reductions. The transcription of NQO1 is finely regulated by NRF2, and thus NQO1 activity is a good marker for NRF2 activation. On day one, frozen BEAS-2B cells (ATCC) are thawed in a water bath, counted, and re-suspended at a concentration of 250,000 cells/mL. Fifty microliters of cells are plated in 384 well black clear-bottomed plates. Plates are incubated at 37° C., 5% CO2 overnight. On day two, plates are centrifuged and 50 nL of compound or controls are added to the cells. Plates are then incubated at 37° C., 5% CO2 for 48 hours. On day four, medium is aspirated from the plate and crude cell lysates are made by adding 13 uL of 1× Cell Signaling Technologies lysis buffer with 1 Complete, Mini, EDTA-free Protease Inhibitor Tablet (Roche) for each 10 mL of lysis buffer. After lysis plates are incubated for 20 minutes at room temperature. Two microliters of lysate are removed for use in Cell Titer Glo assay (Promega) and MTT cocktail is prepared (Prochaska et. al. 1998) for measurement of NQO1 activity. Fifty microliters of MTT cocktail is added to each well, plate is centrifuged, and analyzed on an Envision plate reader (Perkin Elmer) using Absorbance 570 nm label for 30 minutes. Product formation is measured kinetically and the EC50 of NQO1 specific activity induction is calculated by plotting the change in absorbance (Delta OD/min) versus the log of compound concentration followed by 3-parameter fitting.

Dog PK study = assay type: in vivo; details: for Dog PK Fpo: male beagle dogs, nominal 1 mg/kg, oral gavage solution vs 60-minute intravenous infusion, cassette, non-crossover
Method: One hundred nanoliters of 100× compound dose response curves (serial 3-fold dilutions) in DMSO are stamped using an Echo liquid handling system (Labcyte) into 384-well, low volume, black assay plates (Greiner, #784076), with DMSO in columns 6 and 18. The top concentration of compound is located in columns 1 and 13. All reagents are diluted in assay buffer (50 mM Tris, pH 8.0, 5 mM MgCl2, 100 mM NaCl, 0.005% BSA, 1 mM DTT, and 2 mM CHAPS). The BSA, DTT, and CHAPS are added to the assay buffer on the day of assay. Using a Multidrop Combi (Thermo Electron Corporation) equipped with a metal tip dispenser, 5 ul of 25 nM Keap1-FlagHis protein is added to all wells of the compound plate, with the exception of the wells in column 18. Wells in column 18 receive 5 ul of assay buffer instead. Plates are centrifuged at 500 rpm for 1 minute, covered with a plate lid, and incubated at 37° C. for 2.25 hours. Plates are then removed from the incubator and allowed to cool to RT for 15 minutes. Five microliters of 50 nM biotin-NRF2 protein is then added to all wells of the plates and the plates are spun at 500 rpm for 1 minute, followed by incubating at 4° C. for 1.25 hours. The plates are then allowed to warm to RT for 15 minutes, followed by the addition of 10 ul of detection mix (1 nM Streptavidin Eu+ W1024 and 5 ug/ml mouse anti-DYKDDDDK IgG conjugated to SureLight APC antibody; both from Columbia Biosciences) to all wells. Plates are spun at 500 rpm for 1 minute, incubated for 1 hour at RT, and read on an Envision plate reader using a 320 nm excitation filter and 615 nm and 665 nm emission filters. Compound response (% inhibition) and potency (pIC50) are calculated based on the ratio of the two emissions (665 nm/615 nm) and then the transformed data is normalized against controls in the assay (control 1=1% DMSO in the presence of NRF2 and Keap1 protein and control 2=1% DMSO in the absence of protein). Data analysis is handled using the software package Abase XE (Surrey, United Kingdom). The % inhibition values are calculated from the ratio (transformed) data by the equation: 100−(100*(compound response−average control 2)/(average control 1−average control2)). For calculation of pIC50s, Abase XE uses a four parameter equation. Dog PK Study
All studies were conducted after review by the GSK Institutional Animal Care and Use Committee and in accordance with the GSK Policy on the Care, Welfare and Treatment of Laboratory Animals. A pre-study health examination that included a physical exam and complete blood count was performed on the animals prior to use on study. A catheter was temporarily placed in a cephalic or saphenous vein for sample collection on the study day. The animals were fasted overnight prior to dosing; food provided after the 4-hour blood sample was collected. The intravenous and oral solution pharmacokinetic studies were carried out using a non-crossover design; a total of four male beagle dogs were used, two per route of administration.
The dose for intravenous administration was prepared as a cassette of up to five test compounds in 20% Cavitron™ and 5% DMSO. The intravenous dose formulation was filtered through a 0.22-micron polytetrafluoroethylene (PTFE) filter prior to administration. The dose for oral solution administration was prepared as a cassette of up to five compounds in 6% Cavitron™ and 5% DMSO and was filtered through a 0.22 micron VWR PTFE filter prior to administration. […]

T2 sequence (Q14145 whole entry): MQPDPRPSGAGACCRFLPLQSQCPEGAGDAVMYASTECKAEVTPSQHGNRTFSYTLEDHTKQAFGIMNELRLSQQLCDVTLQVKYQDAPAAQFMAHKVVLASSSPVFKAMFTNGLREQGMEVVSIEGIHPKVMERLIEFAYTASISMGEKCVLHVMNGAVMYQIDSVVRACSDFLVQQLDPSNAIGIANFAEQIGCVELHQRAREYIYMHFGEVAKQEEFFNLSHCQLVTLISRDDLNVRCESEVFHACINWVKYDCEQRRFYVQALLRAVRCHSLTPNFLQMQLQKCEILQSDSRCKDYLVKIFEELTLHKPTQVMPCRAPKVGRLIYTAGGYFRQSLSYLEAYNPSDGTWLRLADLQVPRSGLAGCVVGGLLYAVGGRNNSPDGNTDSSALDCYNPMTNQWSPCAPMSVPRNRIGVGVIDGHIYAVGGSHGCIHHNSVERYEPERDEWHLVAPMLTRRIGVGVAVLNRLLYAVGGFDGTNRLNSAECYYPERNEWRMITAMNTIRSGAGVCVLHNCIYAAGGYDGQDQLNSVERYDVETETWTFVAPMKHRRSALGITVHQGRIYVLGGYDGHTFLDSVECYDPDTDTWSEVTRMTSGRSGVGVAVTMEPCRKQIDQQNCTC
T1 sequence (Q14145 321-609): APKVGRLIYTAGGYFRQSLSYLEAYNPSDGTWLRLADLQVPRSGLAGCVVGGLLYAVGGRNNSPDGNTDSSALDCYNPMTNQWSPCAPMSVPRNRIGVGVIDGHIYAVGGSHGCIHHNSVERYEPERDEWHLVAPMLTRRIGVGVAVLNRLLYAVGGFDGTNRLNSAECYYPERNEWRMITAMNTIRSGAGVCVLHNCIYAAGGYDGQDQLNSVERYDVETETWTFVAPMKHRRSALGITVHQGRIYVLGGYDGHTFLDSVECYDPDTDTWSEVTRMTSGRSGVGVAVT

Structure (SMILES): CC[C@@H]1CN(Cc2cc(C(CC(=O)O)c3ccc4c(nnn4C)c3C)ccc2C)Cc2ncccc2O1 (mixture of isomers) [Beta-stereocenter 50/50 mixture, 3-(1,4-Dimethyl-1H-benzo[d][1,2,3]triazol-5-yl)-3-(3-(((R)-2-ethyl-2,3-dihydropyrido[2,3-t][1,4]oxazepin-4(5H)-yl)methyl)-4-methylphenyl)propanoic acid]
- IC50 [1]: 0.063 µM
- IC50 [2]: 0.025 µM
- Rat PK Fpo (Rat PK): 177%
- EC50 [3]: 0.02 µM

Structure (SMILES): CC[C@@H]1CN(Cc2cc([C@@H](CC(=O)O)c3ccc4c(nnn4C)c3C)ccc2C)Cc2ncccc2O1 [Formula (I) R-beta-stereocenter isomer, (R)-3-(1,4-dimethyl-1H-benzo[d][1,2,3]triazol-5-yl)-3-(3-(((R)-2-ethyl-2,3-dihydropyrido[2,3-f][1,4]oxazepin-4(5H)-yl)methyl)-4-methylphenyl)propanoic acid]
- IC50 [1]: 0.04 µM
- IC50 [2]: 0.016 µM
- difference in the dog oral bioavailability (Dog PK study; compound of the invention versus the S-isomer, dog): ~5 fold
- Dog PK Fpo (Dog PK study): 52%
- Dog PK Fpo (Dog PK study; listed as compound of the invention): 52%
- Rat PK Fpo (Rat PK): 129%
- EC50 [3]: 0.02 µM

Structure (SMILES): CC[C@@H]1CN(Cc2cc([C@H](CC(=O)O)c3ccc4c(nnn4C)c3C)ccc2C)Cc2ncccc2O1 [S-beta-stereocenter isomer, (S)-3-(1,4-dimethyl-1H-benzo[d][1,2,3]triazol-5-yl)-3-(3-(((R)-2-ethyl-2,3-dihydropyrido[2,3-f][1,4]oxazepin-4(5H)-yl)methyl)-4-methylphenyl)propanoic acid]
- IC50 [1]: 0.05 µM
- IC50 [2]: 0.012 µM
- Dog PK Fpo (Dog PK study): 11%
- Dog PK Fpo (Dog PK study; listed as S-isomer): 11%
- Rat PK Fpo (Rat PK): 78%
- EC50 [3]: 0.016 µM
